From US5070210A, “Novel ketenimines as intermediates for insecticides” (ICI Americas Inc., priority 1990, dated 1991)

Experiments:
Format in all cases: in vivo
[1] = test system: Cabbage Looper [Trichoplusia ni (Hubner)]; test: Cabbage looper insecticidal test; settings: second-instar larvae, percent in solution; 3-5 days
How it was run: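 LC50 values, given as percent test compound in solution, were calculated from dosage-mortality curves. Squash cotyledons were immersed 2-3 s in acetone-water (50-50) dilutions starting at 0.1%, dried on a screen, then infested with five second-instar larvae. Mortality was read 3-5 days on.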

[2] = test system: Tobacco Budworm [Heliothis virescens (Fabricius)] eggs; test: Tobacco budworm egg test; settings: 2-day old eggs, percent in solution
How it was run: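 2-day eggs on paper towel, acetone dip, 0.1% and below; petri dish with larval diet, 78° F. Mortality read after control hatch and larval feeding. LC50 = % compound in solution, from dose-mortality curve.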

[3] = test system: Housefly [Musca domestica]; test: Housefly insecticidal test; settings: μg per 25 female flies; mortality after 48 hours
How it was run: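 Dose range started at 100 μg per 25 female flies and went downward. Insects (1-2 days old) contacted a dried acetone/peanut-oil deposit in dishes; LC50 values come from dosage-mortality curves at 48 h.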

[4] = test system: Maize weevil [Sitophilus Zeamais (Motschulsky)]; test: Maize weevil insecticidal test; settings: adult weevils, percent in solution; 48 hours
Method: The compounds in Tables 1 and 2 above were tested for insecticidal activity using the following testing procedures. LC50 values, based on the results of these tests and calculated according to dosage-mortality curves, are expressed in Table 3.
Maize weevil [Sitophilus Zeamais (Motschulsky)]:
Test compounds were diluted in a 50:50 acetone:water solution. Four corn seeds [Zea mays (L.)] which had been immersed in test solutions for 2-3 seconds and allowed to dry were placed in containers together with 10 adult weevils. The containers were covered and kept at a temperature of about 25° C. Mortality was recorded after 48 hours. Test concentrations ranged from 0.01% down to that at which 50% mortalilty occurred. The LC50 values are expressed below in Table 3 under the heading "MW" in terms of percent of the test compound in solution.

Compound: Clc1ccc(N=C(OCc2cccc(Oc3ccccc3)c2)C2CCC2)cc1 [Compound 8]
- LC50, CL [1]: 0.01%
- LC50, TBW, E (TBW-E) [2]: > 0.1%
- LC50, HF [3]: 50 µg
- LC50, MW [4]: > 0.01%

Compound: CC(C)(C)C(=Nc1cccc(C(F)(F)F)c1)OCc1cccc(Oc2ccccc2)c1 [Compound 88]
- LC50, CL [1]: 0.018%
- LC50, TBW, E (TBW-E) [2]: > 0.1%
- LC50, HF [3]: > 100 µg
- LC50, MW [4]: > 0.01%

Compound: Fc1ccc(Oc2cccc(COC(=Nc3ccc(F)c(Cl)c3)C3CC3)c2)cc1 [Compound 116]
- LC50, CL [1]: 0.00025%
- LC50, TBW, E (TBW-E) [2]: 0.05%
- LC50, HF [3]: 15 µg
- LC50, MW [4]: > 0.01%

Compound: CCc1ccc(N=C(OCc2cccc(Oc3ccccc3)c2)C(C)(C)C)cc1 [Compound 163]
- LC50, CL [1]: 0.004%
- LC50, TBW, E (TBW-E) [2]: > 0.1%
- LC50, HF [3]: > 100 µg
- LC50, MW [4]: > 0.01%

Compound: CC(C)C(=Nc1ccc(F)c(Cl)c1)OCc1cccc(Oc2cccc(Cl)c2)c1 [Compound 203]
- LC50, CL [1]: 0.0025%
- LC50, TBW, E (TBW-E) [2]: 0.06%
- LC50, HF [3]: 43 µg
- LC50, MW [4]: > 0.01%

Compound: CC(C)C(=Nc1cc(F)c(Cl)cc1Cl)OCc1ccc(F)c(Oc2ccc(F)cc2)c1 [Compound 292]
- LC50, CL [1]: 0.00075%
- LC50, TBW, E (TBW-E) [2]: 0.05%
- LC50, HF [3]: 41 µg
- LC50, MW [4]: > 0.01%

Compound: Fc1ccc(Oc2cccc(COC(=Nc3cccc(C(F)(F)F)c3)C3CC3)c2)cc1 [Compound 294]
- LC50, CL [1]: 0.017%
- LC50, TBW, E (TBW-E) [2]: > 0.1%
- LC50, HF [3]: > 100 µg
- LC50, MW [4]: > 0.01%

Compound: CC(C)C(=Nc1ccc(F)c(Br)c1)OCc1ccc(F)c(Oc2ccccc2)c1 [Compound 299]
- LC50, CL [1]: 0.0005%
- LC50, TBW, E (TBW-E) [2]: 0.017%
- LC50, HF [3]: 8 µg
- LC50, MW [4]: > 0.01%

Compound: CC(C)C(=Nc1ccc(C(C)(C)C)cc1)OCc1ccc(F)c(Oc2ccc(Cl)cc2)c1 [Compound 301]
- LC50, CL [1]: 0.008%
- LC50, TBW, E (TBW-E) [2]: > 0.1%
- LC50, HF [3]: > 100 µg
- LC50, MW [4]: > 0.01%

Compound: CCC(=Nc1ccc(C(C)C)cc1)OCc1cccc(Oc2ccc(F)cc2)c1 [Compound 320]
- LC50, CL [1]: 0.0075%
- LC50, TBW, E (TBW-E) [2]: > 0.1%
- LC50, HF [3]: > 100 µg

Compound: CCC(CC)C(=Nc1ccc(C(C)C)cc1)OCc1cccc(Oc2ccccc2)c1 [Compound 321]
- LC50, CL [1]: 0.05%
- LC50, TBW, E (TBW-E) [2]: > 0.1%
- LC50, HF [3]: > 100 µg

Compound: CC(C)c1ccc(N=C(OCc2cccc(Oc3ccc(F)cc3)c2)C(C)(C)C)cc1 [Compound 322]
- LC50, CL [1]: 0.007%
- LC50, TBW, E (TBW-E) [2]: > 0.1%
- LC50, HF [3]: > 100 µg

Compound: CC(C)C(=Nc1ccc(F)c(Cl)c1)OCc1cc(F)cc(Oc2ccc(F)cc2)c1 [Compound 327]
- LC50, CL [1]: 0.005%
- LC50, TBW, E (TBW-E) [2]: > 0.1%
- LC50, HF [3]: > 100 µg

Compound: CC(C)CC(=Nc1ccc(C(C)C)cc1)OCc1cccc(Oc2ccc(F)cc2)c1 [Compound 329]
- LC50, CL [1]: 0.033%
- LC50, TBW, E (TBW-E) [2]: > 0.1%
- LC50, HF [3]: 7 µg

Compound: CC(C)C(=Nc1ccc(F)c(Cl)c1)OCc1cccc(Oc2ccc(I)cc2)c1 [Compound 447]
- LC50, CL [1]: 0.0009%
- LC50, TBW, E (TBW-E) [2]: > 0.1%
- LC50, HF [3]: 33 µg

Compound: CC(C)C(=Nc1ccc(F)c(Cl)c1)OCc1ccc(Cl)c(Oc2ccc(F)cc2)c1 [Compound 448]
- LC50, CL [1]: 0.003%
- LC50, TBW, E (TBW-E) [2]: 0.03%
- LC50, HF [3]: 16 µg

Compound: Fc1c(F)c(F)c(COC(=Nc2cccc(Cl)c2Cl)C(Cl)Cl)c(F)c1F [Compound 454]
- LC50, CL [1]: 0.03%
- LC50, TBW, E (TBW-E) [2]: > 0.1%
- LC50, HF [3]: > 100 µg

Compound: Cc1c(COC(=Nc2ccc(Cl)cc2)C(C)C)cccc1-c1ccccc1 [Compound 455]
- LC50, CL [1]: 0.0025%
- LC50, TBW, E (TBW-E) [2]: > 0.1%
- LC50, HF [3]: > 100 µg

Compound: Cc1c(COC(=Nc2ccc(F)cc2)C(C)C)cccc1-c1ccccc1 [Compound 458]
- LC50, CL [1]: 0.007%
- LC50, TBW, E (TBW-E) [2]: > 0.05%
- LC50, HF [3]: 100 µg

Compound: CC(C)C(=Nc1ccc2c(c1)OCO2)OCc1c(F)c(F)c(F)c(F)c1F [Compound 464]
- LC50, CL [1]: 0.08%
- LC50, TBW, E (TBW-E) [2]: > 0.1%
- LC50, HF [3]: > 100 µg

Compound: CC(C)C(=Nc1ccc2c(c1)OCO2)OCc1cccc(Oc2ccccc2)n1 [Compound 467]
- LC50, CL [1]: 0.003%
- LC50, TBW, E (TBW-E) [2]: 0.04%
- LC50, HF [3]: 6 µg

Compound: CC(C)C(=Nc1ccc2c(c1)OC(C)(C)O2)OCc1cccc(Oc2ccc(Cl)cc2)n1 [Compound 468]
- LC50, CL [1]: > 0.1%
- LC50, TBW, E (TBW-E) [2]: > 0.1%
- LC50, HF [3]: 50 µg

Compound: CC(C)C(=Nc1cccc(C(F)(F)F)c1)OCc1cccc(Oc2ccncc2)c1 [Compound 469]
- LC50, CL [1]: 0.02%
- LC50, TBW, E (TBW-E) [2]: > 0.1%
- LC50, HF [3]: 40 µg

Compound: CC(C)C(=Nc1ccc(F)c(Cl)c1)OCc1cccc(Oc2ccncc2)c1 [Compound 470]
- LC50, CL [1]: 0.02%
- LC50, TBW, E (TBW-E) [2]: > 0.1%
- LC50, HF [3]: 25 µg

Compound: CC(C)C(=Nc1ccc(F)c(Cl)c1)OCc1cccc(OCc2ccccc2)c1 [Compound 472]
- LC50, CL [1]: 0.0025%
- LC50, TBW, E (TBW-E) [2]: > 0.1%
- LC50, HF [3]: > 100 µg

Compound: CC(C)C(=Nc1ccc(F)c(Cl)c1)OCc1ccc(F)c(Br)c1 [Compound 473]
- LC50, CL [1]: 0.025%
- LC50, TBW, E (TBW-E) [2]: > 0.1%
- LC50, HF [3]: > 100 µg

Compound: CC(C)C(=Nc1ccc(F)c(Cl)c1)OCc1coc(Cc2ccccc2)c1 [Compound 474]
- LC50, CL [1]: 0.0012%
- LC50, TBW, E (TBW-E) [2]: > 0.1%
- LC50, HF [3]: 8 µg

Compound: CC(C)C(=Nc1cccc(C(F)(F)F)c1)OCc1ccc(OCc2ccccc2)cc1 [Compound 476]
- LC50, CL [1]: 0.015%
- LC50, TBW, E (TBW-E) [2]: > 0.1%
- LC50, HF [3]: > 100 µg

Compound: C=CCOc1cccc(COC(=Nc2cccc(C(F)(F)F)c2)C(C)C)c1 [Compound 480]
- LC50, CL [1]: 0.01%
- LC50, TBW, E (TBW-E) [2]: > 0.1%
- LC50, HF [3]: > 100 µg

Compound: C=CCOc1cccc(COC(=Nc2ccc(Cl)c(Cl)c2)C(C)C)c1 [Compound 481]
- LC50, CL [1]: 0.015%
- LC50, TBW, E (TBW-E) [2]: > 0.1%
- LC50, HF [3]: > 100 µg

Compound: CC(C)C(=Nc1ccc(Cl)cc1)OCc1coc(Cc2ccccc2)c1 [Compound 484]
- LC50, CL [1]: 0.003%
- LC50, TBW, E (TBW-E) [2]: > 0.1%
- LC50, HF [3]: 16 µg

Compound: CC(C)C(=Nc1ccc(F)c(F)c1)OCc1coc(Cc2ccccc2)c1 [Compound 485]
- LC50, CL [1]: > 0.1%
- LC50, TBW, E (TBW-E) [2]: > 0.1%
- LC50, HF [3]: 24 µg

Compound: CC(C)C(=Nc1ccc(F)c(Cl)c1)OCc1ccc(OCc2ccc(F)cc2)cc1 [Compound 487]
- LC50, CL [1]: 0.023%
- LC50, TBW, E (TBW-E) [2]: > 0.1%
- LC50, HF [3]: > 100 µg

Compound: CC(C)C(=Nc1cccc(C(F)(F)F)c1)OCc1ccc(OCc2ccc(F)cc2)cc1 [Compound 488]
- LC50, CL [1]: 0.025%
- LC50, TBW, E (TBW-E) [2]: > 0.1%
- LC50, HF [3]: > 100 µg

Compound: CC(C)C(=Nc1cccc(C(F)(F)F)c1)OCc1cccc(OCc2ccc(F)cc2)c1 [Compound 489]
- LC50, CL [1]: < 0.1%
- LC50, TBW, E (TBW-E) [2]: > 0.1%
- LC50, HF [3]: > 100 µg

Compound: CC(C)C(=Nc1ccc(F)cc1)OCc1coc(Cc2ccccc2)c1 [Compound 491]
- LC50, CL [1]: 0.0028%
- LC50, TBW, E (TBW-E) [2]: 0.08%
- LC50, HF [3]: 9 µg

Compound: CC(C)C(=Nc1cccc(C(F)(F)F)c1)OCc1cccc(Oc2ccc(Br)cc2)n1 [Compound 493]
- LC50, CL [1]: 0.0008%
- LC50, TBW, E (TBW-E) [2]: 0.05%
- LC50, HF [3]: 36 µg

Compound: Cc1ccc(Oc2cccc(COC(=Nc3ccc(F)c(Cl)c3)C(C)C)n2)cc1 [Compound 494]
- LC50, CL [1]: 0.003%
- LC50, TBW, E (TBW-E) [2]: > 0.1%
- LC50, HF [3]: 34 µg

Compound: Cc1ccc(Oc2cccc(COC(=Nc3cccc(C(F)(F)F)c3)C(C)C)n2)cc1 [Compound 495]
- LC50, CL [1]: 0.012%
- LC50, TBW, E (TBW-E) [2]: 0.1%
- LC50, HF [3]: > 100 µg

Compound: CC(C)C(=Nc1ccc(C(C)(C)C)cc1)OCc1cccc(Oc2ccccc2)n1 [Compound 496]
- LC50, CL [1]: 0.006%
- LC50, TBW, E (TBW-E) [2]: > 0.1%
- LC50, HF [3]: > 100 µg

Compound: CC(C)C(=Nc1ccc(C(C)(C)C)cc1)OCc1cccc(Oc2ccc(Cl)cc2)n1 [Compound 497]
- LC50, CL [1]: 0.0075%
- LC50, TBW, E (TBW-E) [2]: > 0.1%
- LC50, HF [3]: > 100 µg

Compound: CC(C)C(=Nc1ccc(F)c(Cl)c1)OC(C)c1cccc(Oc2ccccc2)n1 (stereo not drawn) [Compound 498]
- LC50, CL [1]: 0.002%
- LC50, TBW, E (TBW-E) [2]: > 0.1%
- LC50, HF [3]: 49 µg

Compound: CC(C)C(=Nc1cccc(C(F)(F)F)c1)OC(C)c1cccc(Oc2ccccc2)n1 (stereo not drawn) [Compound 499]
- LC50, CL [1]: 0.0024%
- LC50, TBW, E (TBW-E) [2]: > 0.1%
- LC50, HF [3]: 63 µg

Compound: COCc1c(F)c(F)c(COC(=Nc2ccc3c(c2)OCO3)C(C)C)c(F)c1F [Compound 501]
- LC50, CL [1]: 0.00045%
- LC50, TBW, E (TBW-E) [2]: > 0.1%
- LC50, HF [3]: 20 µg
